The values that follow come from US12600728B2, “Interleukin-17 inhibitors” (priority 2020, dated 2026).

The target of assay [1] is biotinylated human IL-17A / AF647-labeled human IL-17RA (Homo sapiens, UniProt Q16552). Nature of the assay: Human IL-17A×IL-17RA TR-FRET assay. The class given is binding. A digest of the protocol: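 Compounds tested in duplicate at each concentration; neutral controls contain all components with DMSO in place of compound.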
Assay [2] addresses recombinant human IL-17AA (Homo sapiens, UniProt Q16552). Nature of the assay: IL-6 release from NHDF cells, IL-17AA plus TNF-α stimulation. It counts as cell-based. To be noted: NHDF cells, 24 hours, IL-6 by ELISA, read-out: IL17AA + TNF IC50 IL-6. A digest of the protocol:
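IL-17-specific IL-6 release from NHDF cells adhered overnight; compounds pre-incubated 30 min at room temperature with human IL-17AA plus TNF-α, then 24 h on cells at 37° C. Final DMSO 0.1% or plasma 20%; IL-6 by ELISA (450 nm). TNF-α-only IL-6 subtracted before IC50 fit.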
(In general: An ELISA detects its analyte on a solid surface through an enzyme-linked reagent.)

Setting [3] is: TR-FRET, biotinylated human IL-17A 5 nM, AF647-labeled human IL-17RA 30 nM, read-out: IL17AA FRET/ IL17Rawt IC50.

Where two headings read alike, the source gives them in different places.

recombinant human IL-17AA, sequence (Q16552 24-155): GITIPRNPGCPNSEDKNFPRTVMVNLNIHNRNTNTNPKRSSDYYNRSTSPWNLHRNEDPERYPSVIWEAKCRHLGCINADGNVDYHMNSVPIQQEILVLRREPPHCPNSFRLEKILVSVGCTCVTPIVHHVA
biotinylated human IL-17A / AF647-labeled human IL-17RA, sequence (Q16552 24-155): as above

Turning to `Cc1cc[n+]([O-])c(C)c1-c1ccc(NC(=O)[C@@H](NC(=O)c2ccnn2C)C2CCC(F)(F)CC2)cc1F` [Example 109, 3-(4-((S)-2-(4,4-difluorocyclohexyl)-2-(1-methyl-1H-pyrazole-5-carboxamido)acetamido)-2-fluorophenyl)-2,4-dimethylpyridine 1-oxide], the IC50 in assay [1] (setting [3]) was found to be 164 nM; in assay [2] (IL-17AA 30 pM plus TNF-α 6 pM), 84 nM.

Take `Cn1nccc1C(=O)N[C@H](C(=O)Nc1ccc(-c2c[n+]([O-])ccc2Cl)cc1)C1CCCCC1` [Example 112, (S)-4-chloro-3-(4-(2-cyclohexyl-2-(1-methyl-1H-pyrazole-5-carboxamido)acetamido)phenyl)pyridine 1-oxide]: the IC50 in assay [1] (setting [3]) was 1040 nM; in assay [2] (IL-17AA 30 pM plus TNF-α 6 pM), 162 nM.

For the compound `Cc1cc(-c2ccc(NC(=O)[C@@H](NC(=O)c3ccnn3C)C3CCCCC3)cc2)c(C)[n+]([O-])c1` [Example 113, (S)-3-(4-(2-cyclohexyl-2-(1-methyl-1H-pyrazole-5-carboxamido)acetamido)phenyl)-2,5-dimethylpyridine 1-oxide], the IC50 came to 339 nM in assay [1] (setting [3]) and 38 nM in assay [2] (IL-17AA 30 pM plus TNF-α 6 pM).

Take `Cc1c(-c2ccc(NC(=O)[C@@H](NC(=O)c3ccnn3C)C3CCCCC3)cc2)cc(CO)c[n+]1[O-]` [Example 115, (S)-3-(4-(2-cyclohexyl-2-(1-methyl-1H-pyrazole-5-carboxamido)acetamido)phenyl)-5-(hydroxymethyl)-2-methylpyridine 1-oxide]: the IC50 came to 1380 nM in assay [1] (setting [3]) and 201 nM in assay [2] (IL-17AA 30 pM plus TNF-α 6 pM).

As to `Cc1c[n+]([O-])cc(C)c1-c1ccc(NC(=O)[C@@H](NC(=O)c2ccc3n2CCNC3)C2CCCCCC2)cc1` [Example 116, (S)-4-(4-(2-cycloheptyl-2-(1,2,3,4-tetrahydropyrrolo[1,2-a]pyrazine-6-carboxamido)acetamido)phenyl)-3,5-dimethylpyridine 1-oxide], the IC50 in assay [1] (setting [3]) came to 304 nM; in assay [2] (IL-17AA 30 pM plus TNF-α 6 pM), 118 nM.

Consider `Cc1c[n+]([O-])cc(C)c1-c1ccc(NC(=O)[C@@H](NC(=O)c2ccc3n2CCN(C)C3)C2CCCCCC2)cc1` [Example 117, (S)-4-(4-(2-cycloheptyl-2-(2-methyl-1,2,3,4-tetrahydropyrrolo[1,2-a]pyrazine-6-carboxamido)acetamido)phenyl)-3,5-dimethylpyridine 1-oxide], for which the IC50 in assay [1] (setting [3]) is 161 nM; in assay [2] (IL-17AA 30 pM plus TNF-α 6 pM), 121 nM.

As for `CC(=O)N1CCn2c(ccc2C(=O)N[C@H](C(=O)Nc2ccc(-c3c(C)c[n+]([O-])cc3C)cc2)C2CCCCCC2)C1` [Example 118, (S)-4-(4-(2-(2-acetyl-1,2,3,4-tetrahydropyrrolo[1,2-a]pyrazine-6-carboxamido)-2-cycloheptylacetamido)phenyl)-3,5-dimethylpyridine 1-oxide], the IC50 in assay [1] (setting [3]) is 183 nM; in assay [2] (IL-17AA 30 pM plus TNF-α 6 pM), 20 nM.

As to `Cc1cc[n+]([O-])c(C)c1-c1ccc(NC(=O)[C@@H](NC(=O)c2ccn3c2CN(C)CC3)C2CCCCCC2)cc1` [Example 119, (S)-3-(4-(2-cycloheptyl-2-(2-methyl-1,2,3,4-tetrahydropyrrolo[1,2-a]pyrazine-8-carboxamido)acetamido)phenyl)-2,4-dimethylpyridine 1-oxide], the results for the IC50 in assay [1] (setting [3]) and in assay [2] (IL-17AA 30 pM plus TNF-α 6 pM) were 130 nM and 15 nM, respectively.

With `Cc1cc[n+]([O-])c(C)c1-c1ccc(NC(=O)[C@@H](NC(=O)c2ccc3n2CCN(C)C3)C2CCCCCC2)cc1` [Example 120, (S)-3-(4-(2-cycloheptyl-2-(2-methyl-1,2,3,4-tetrahydropyrrolo[1,2-a]pyrazine-6-carboxamido)acetamido)phenyl)-2,4-dimethylpyridine 1-oxide], the IC50 was determined as 94 nM in assay [1] (setting [3]) and 4 nM in assay [2] (IL-17AA 30 pM plus TNF-α 6 pM).

For `Cc1cc[n+]([O-])c(C)c1-c1ccc(NC(=O)C(NC(=O)c2ccc3n2CCN(C)C3)C2CCC(C)CC2)cc1` [Example 121, 2,4-dimethyl-3-(4-((S)-2-(2-methyl-1,2,3,4-tetrahydropyrrolo[1,2-a]pyrazine-6-carboxamido)-2-((1r,4S)-4-methylcyclohexyl)acetamido)phenyl)pyridine 1-oxide], the IC50 worked out at 111 nM in assay [1] (setting [3]) and 17 nM in assay [2] (IL-17AA 30 pM plus TNF-α 6 pM).

As for `Cc1c(-c2ccc(NC(=O)[C@@H](NC(=O)c3ccc4n3CCN(C)C4)C3CCCCCC3)cc2F)c(Cl)cc[n+]1[O-]` [Example 122, 4-chloro-3-(4-((S)-2-cycloheptyl-2-(2-methyl-1,2,3,4-tetrahydropyrrolo[1,2-a]pyrazine-6-carboxamido)acetamido)-2-fluorophenyl)-2-methylpyridine 1-oxide], the values for the IC50 in assay [1] (setting [3]) and in assay [2] (IL-17AA 30 pM plus TNF-α 6 pM) were 128 nM and 9 nM, respectively.

Take `Cc1c(-c2ccc(NC(=O)[C@@H](NC(=O)c3ccc4n3CCN(C)C4)C3CCC(F)(F)CC3)cc2)c(Cl)cc[n+]1[O-]` [Example 123, (S)-4-chloro-3-(4-(2-(4,4-difluorocyclohexyl)-2-(2-methyl-1,2,3,4-tetrahydropyrrolo[1,2-a]pyrazine-6-carboxamido)acetamido)phenyl)-2-methylpyridine 1-oxide]: the IC50 in assay [1] (setting [3]) amounted to 150 nM; in assay [2] (IL-17AA 30 pM plus TNF-α 6 pM) it was 59 nM.

Take `Cc1c(-c2ccc(NC(=O)[C@@H](NC(=O)c3ccc4n3CCN(C)C4)C3CCCCC3)cc2F)c(Cl)cc[n+]1[O-]` [Example 124, 4-chloro-3-(4-((S)-2-cyclohexyl-2-(2-methyl-1,2,3,4-tetrahydropyrrolo[1,2-a]pyrazine-6-carboxamido)acetamido)-2-fluorophenyl)-2-methylpyridine 1-oxide]: the figures for the IC50 in assay [1] (setting [3]) and in assay [2] (IL-17AA 30 pM plus TNF-α 6 pM) were 172 nM and 8 nM, respectively.

For the compound `Cc1cc[n+]([O-])c(C)c1-c1ccc(NC(=O)C(NC(=O)c2ccc3n2CCN(C)C3)C2CCC(C(F)(F)F)CC2)cc1` [Example 125, 2,4-dimethyl-3-(4-((S)-2-(2-methyl-1,2,3,4-tetrahydropyrrolo[1,2-a]pyrazine-6-carboxamido)-2-((1r,4S)-4-(trifluoromethyl)cyclohexyl)acetamido)phenyl)pyridine 1-oxide], the figures for the IC50 in assay [1] (setting [3]) and in assay [2] (IL-17AA 30 pM plus TNF-α 6 pM) were 174 nM and 18 nM, respectively.

Consider `Cc1c(-c2ccc(NC(=O)[C@@H](NC(=O)c3ccc4n3CCN(C)C4)C3CCCCC3)cc2F)ccc[n+]1[O-]` [Example 126, (S)-3-(4-(2-cyclohexyl-2-(2-methyl-1,2,3,4-tetrahydropyrrolo[1,2-a]pyrazine-6-carboxamido)acetamido)-2-fluorophenyl)-2-methylpyridine 1-oxide], for which the IC50 in assay [1] (setting [3]) came out at 228 nM; in assay [2] (IL-17AA 30 pM plus TNF-α 6 pM) it was 62 nM.

For `Cc1cc[n+]([O-])c(C)c1-c1ccc(NC(=O)[C@@H](NC(=O)c2ccc3n2CCN(C)C3)C2CCCCC2)cc1` [Example 127, (S)-3-(4-(2-cyclohexyl-2-(2-methyl-1,2,3,4-tetrahydropyrrolo[1,2-a]pyrazine-6-carboxamido)acetamido)phenyl)-2,4-dimethylpyridine 1-oxide], the IC50 in assay [1] (setting [3]) was 236 nM; in assay [2] (IL-17AA 30 pM plus TNF-α 6 pM), 12 nM.

With `Cc1cc[n+]([O-])c(C)c1-c1ccc(NC(=O)[C@@H](NC(=O)c2ccc3n2CCN(C)C3)C2CC=C(F)CC2)cc1` (stereo partly drawn) [Example 128, 3-(4-((2S)-2-(4-fluorocyclohex-3-en-1-yl)-2-(2-methyl-1,2,3,4-tetrahydropyrrolo[1,2-a]pyrazine-6-carboxamido)acetamido)phenyl)-2,4-dimethylpyridine 1-oxide], the results for the IC50 in assay [1] (setting [3]) and in assay [2] (IL-17AA 30 pM plus TNF-α 6 pM) were 299 nM and 54 nM, respectively.

For `Cc1cc[n+]([O-])c(C)c1-c1ccc(NC(=O)[C@H](Cc2ccccc2Cl)NC(=O)c2ccc3n2CCN(C)C3)cc1` [Example 130, (S)-3-(4-(3-(2-chlorophenyl)-2-(2-methyl-1,2,3,4-tetrahydropyrrolo[1,2-a]pyrazine-6-carboxamido)propanamido)phenyl)-2,4-dimethylpyridine 1-oxide], the results for the IC50 in assay [1] (setting [3]) and in assay [2] (IL-17AA 30 pM plus TNF-α 6 pM) were 124 nM and 956 nM, respectively.

For the compound `Cc1c(-c2ccc(NC(=O)[C@@H](NC(=O)c3ccc4n3CCN(C3COC3)C4)C3CCCCC3)cc2F)c(Cl)cc[n+]1[O-]` [Example 133, 4-chloro-3-(4-((S)-2-cyclohexyl-2-(2-(oxetan-3-yl)-1,2,3,4-tetrahydropyrrolo[1,2-a]pyrazine-6-carboxamido)acetamido)-2-fluorophenyl)-2-methylpyridine 1-oxide], the IC50 in assay [1] (setting [3]) is 99 nM; in assay [2] (IL-17AA 30 pM plus TNF-α 6 pM), 17 nM.

In the case of `CC(=O)N1CCn2c(ccc2C(=O)N[C@H](C(=O)Nc2ccc(-c3c(Cl)cc[n+]([O-])c3C)c(F)c2)C2CCCCCC2)C1` [Example 134, 3-(4-((S)-2-(2-acetyl-1,2,3,4-tetrahydropyrrolo[1,2-a]pyrazine-6-carboxamido)-2-cycloheptylacetamido)-2-fluorophenyl)-4-chloro-2-methylpyridine 1-oxide], the figures for the IC50 in assay [1] (setting [3]) and in assay [2] (IL-17AA 30 pM plus TNF-α 6 pM) were 72.8 nM and 7 nM, respectively.

In the case of `Cc1cc[n+]([O-])c(C)c1-c1ccc(NC(=O)C(NC(=O)c2ccnn2C)C2CCCC(F)(F)C2)cc1` (centres unmarked) [Example 147, 3-(4-(2-(3,3-difluorocyclohexyl)-2-(1-methyl-1H-pyrazole-5-carboxamido)acetamido)phenyl)-2,4-dimethylpyridine 1-oxide], the IC50 in assay [1] (IL17AA FRET/ IL17Rawt IC50, TR-FRET, 5 nM IL-17A, 30 nM IL-17RA) turned out to be 513 nM; in assay [2] (IL-17AA 30 pM + TNF-α 6 pM) it was 193 nM.

Regarding `Cc1cc[n+]([O-])c(C)c1-c1ccc(NC(=O)[C@@H](NC(=O)c2ccnn2C)C2CCCCCC2)nc1` [Example 148, (S)-6′-(2-cycloheptyl-2-(1-methyl-1H-pyrazole-5-carboxamido)acetamido)-2,4-dimethyl-[3,3′-bipyridine] 1-oxide], the IC50 turned out to be 125 nM in assay [1] (TR-FRET, 5 nM IL-17A, 30 nM IL-17RA, read-out: IL17AA FRET/ IL17Rawt IC50) and 131 nM in assay [2] (IL-17AA 30 pM + TNF-α 6 pM).
